Assays:
[1] = tested on: SARS-CoV-2 clinical isolate; assay type: cell-based
[2] = tested on: Vero E6 cells
[3] = assay type: physicochemical

For CCN(CC)CCCC(C)Nc1ccnc2cc(Cl)ccc12 (stereo not drawn) [chloroquine, Chloroquine Phosphate, reference compound], which SARS-CoV-2 virus titre [1] is on record?
The SARS-CoV-2 virus titre was “limit of detection (LOD)”.

With O=C(O)CC(O)(CC(=O)O)C(=O)O [citric acid pH 5.8, citric acid] as the compound, how does the “in vitro antiviral action against SARS-CoV-2” value [1] read?
Its value is “high in vitro antiviral action”.

What about the “cytotoxicity on the LDH assay” value [2] of the same compound?
The value was “low cytotoxicity”.

Which “cumulative levels of NO” value ([3]; pH 5.8) does the source give for OC[C@@H](O)[C@@H](O)[C@H](O)[C@H](O)CO [mannitol, D-mannitol] here?
Its value is 1400 nmol NO per mg nitrite.

And the “difference in cumulative NO with and without mannitol” value ([3]; pH 6.2)?
The value was “differences have disappeared”.

Which “cumulative nitric oxide evolution” value ([3]; after 3000 s) does the source give for OC[C@@H](O)[C@H](O)[C@@H](O)CO [xylitol] here?
Its value is “about 20000 nmol per mg nitrite”.

Reference: US20240016831A1 (priority 2020, published 2024)
